Assay results from patent publication US20210353633A1, “CYCLODEXTRIN-BASED FORMULATION OF A BCL-2 INHIBITOR” (LES LABORATOIRES SERVIER, priority 2018, published 2021).

Experiments:
[1] = pH, appearance and precipitation pH of solutions diluted in 250 mL of glucose 5% solution (G5); assay type: physicochemical; conditions: for pH: hydrogen sulfate salt in Cavitron W7H5; for Precipitation pH (by light obscuration technique) / Precipitation pH (by visual observation): pH increased with NaOH 0.01N
Experimental: The Compound A used is in the form of a hydrogen sulfate salt. Invisible particulate contamination of the solutions was also controlled by light obscuration technique.
A mother solution containing a dose of 200 mg/mL of Cavitron™ W7H5 and 20 mg/mL of Compound A (expressed for the free base) is prepared by dissolving a lyophilisate as described in Example 5 in the necessary amount of water. The solution so obtained is then diluted by means of glucose 5% solution (G5).
The pH of the solutions obtained is measured and the appearance of the solutions is observed. The pH is increased using NaOH 0.01N solution until a precipitation is observed.

[2] = system: RS4;11; test: Efficacy in RS4;11 xenograft model in mice; assay type: in vivo; conditions: day 21, 20% HP-β-cyclodextrin solution
Experimental: The in vivo therapeutic effect of Compound A formulated in a solution comprising 20% of a HP-β-cyclodextrin w/v, was determined in the RS4;11 model after intravenous administration.
RS4;11 cell line, obtained from ATCC, were subcutaneously injected into female SCID mice, provided by Charles River. When tumors reached the appropriate tumor volume, mice were randomized using Easy stat software. Compound A (15 mg/kg or 40 mg/kg expressed as free base) was injected i.v. once a week over two weeks.
In a 100 mL flask, introduce 20 g of Cavitron™ W7HP5 and add around 75 mL of a solution water/0.9% NaCl (70/30, v/v). Stir for 15 minutes at room temperature. Then, make up the solution to a volume of 100 mL by adding the previous solution water/0.9% NaCl, while maintaining magnetic stirring. Weigh the necessary amount of ‘Compound A, H2SO4’ and dissolve it with the previous 20% w/v Cavitron™ W7H5 solution. Heat the whole at 60° C. under vigorous magnetic stirring until solubilisation of the components of the mixture is complete. Measure the pH of the solution obtained. […]
Mice were monitored for tumor development and body weight three times a week and tumor size was measured using electronic calipers. […] The last day with all control animals still present in the study, tumor growth inhibition was calculated using the formula: […]
wherein ‘DTV (Delta Tumor Volume) at Dx’ is calculated as follows: […]

[3] = pH of precipitation by addition of NaOH to a HP-β-cyclodextrin solution (Example 9); assay type: physicochemical; conditions: hydrogen sulfate salt in Cavitron W7H5 solution; 0.5M NaOH added; visual; duplicate
Experimental: The objective of this study is to define the pH of precipitation of Compound A (hydrogen sulfate salt) from HP-β-cyclodextrin solution to better understand the risk of precipitation and select the pH of the drug product.
Weigh 10 g of Cavitron™ W7H5 in a 50 mL flask. Add 26 g of water and then solubilize the Cavitron™ W7H5 under magnetic agitation. Carefully add 1.14 g of Compound A under magnetic agitation and then add 6.5 mL of water. Solubilize Compound A using magnetic agitation at 60° C. Once totally solubilized, cool down the solution at room temperature then rinse the upper edges of the flask with 0.5 mL of water. The total amount of water added is […].
Slowly add 0.5M NaOH solution under continuous agitation (add 100 μL at each addition step) up to a precipitation is visually observed. The experiment was performed in duplicate. The precipitated solid is separated and dried to be analyzed by RMN, XRPD, XRF, and HPLC.

[4] = 12 mg of Compound A in 250 mL of G5
[5] = 25 mg of Compound A in 250 mL of G5
[6] = 50 mg of Compound A in 250 mL of G5
[7] = 100 mg of Compound A in 250 mL of G5
[8] = 250 mg of Compound A in 250 mL of G5
[9] = 500 mg of Compound A in 250 mL of G5
[10] = 1000 mg of Compound A in 250 mL of G5

Structure (SMILES): Cc1c(N(C(=O)c2cc(-c3cc(Cl)ccc3C(=O)N3Cc4ccccc4C[C@H]3CN3CCOCC3)n(C)c2C)c2ccc(O)cc2)cc(C#N)n1C [Compound A, 5-(5-chloro-2-{[(3S)-3-(morpholin-4-ylmethyl)-3,4-dihydroisoquinolin-2(1H)-yl]carbonyl}phenyl)-N-(5-cyano-1,2-dimethyl-1H-pyrrol-3-yl)-N-(4-hydroxyphenyl)-1,2-dimethyl-1H-pyrrole-3-carboxamide]
- Appearance of the solution after 15 min [1, 4]: clear
- pH [1, 4]: 3.7-4.310
- Precipitation pH (by light obscuration technique) [1, 4]: 5.4
- Precipitation pH (by visual observation) [1, 4]: 8.609
- Appearance of the solution after 15 min [1, 5]: clear
- pH [1, 5]: 3.9-4.240
- Precipitation pH (by light obscuration technique) [1, 5]: 4.8
- Precipitation pH (by visual observation) [1, 5]: 5.220
- Appearance of the solution after 15 min [1, 6]: clear
- pH [1, 6]: 3.8-4.158
- Precipitation pH (by light obscuration technique) [1, 6]: 4.5
- Precipitation pH (by visual observation) [1, 6]: 5.143
- Appearance of the solution after 15 min [1, 7]: clear
- pH [1, 7]: 3.8-4.033
- Precipitation pH (by light obscuration technique) [1, 7]: 4.3
- Precipitation pH (by visual observation) [1, 7]: 4.872
- Appearance of the solution after 15 min [1, 8]: clear
- pH [1, 8]: 3.7-3.809
- Precipitation pH (by light obscuration technique) [1, 8]: 4.1
- Precipitation pH (by visual observation) [1, 8]: 4.388
- Appearance of the solution after 15 min [1, 9]: clear
- pH [1, 9]: 3.5-3.613
- Precipitation pH (by light obscuration technique) [1, 9]: 4.0
- Precipitation pH (by visual observation) [1, 9]: 4.378
- Appearance of the solution after 15 min [1, 10]: clear
- pH [1, 10]: 3.3-3.401
- Precipitation pH (by light obscuration technique) [1, 10]: 4.0
- Precipitation pH (by visual observation) [1, 10]: 4.254
- precipitation when diluted in G5 solution ([1]; concentrations between 12 and 1000 mg/250 mL of G5 solution, solubilised by Cavitron W7H5 solution): do not precipitate
- tumor growth inhibition ([2]; 15 mg/kg i.v. once a week for 2 weeks): 57.83%
- tumor growth inhibition ([2]; 40 mg/kg i.v. once a week for 2 weeks): 75.52%
- pH at which drug precipitation was observed [3]: 4.27
